Test results taken from patent US9616107B2, “Therapy for kidney disease and/or heart failure” (priority 2011, dated 2017).
Read-outs that look alike come from different tables or passages of the source. Ends that are not written are not given here.

Experiment: Toxicology study of VD in rats: 5-day continuous subcutaneous infusion by Alzet minipumps, plasma VD by radioimmunoassay, clinical observations
Type: in vivo
Conditions: for maximum tolerated dose for prolonged subcutaneous administration: expected; for Cmin: SC infusion 5 days
Protocol: VD was administered to a rat model via a subcutaneous delivery route to assess the toxicity of VD and to determine if a lethal dosing amount of the VD can be reached by subcutaneous administration. As noted above, a maximum tolerated or lethal dosing amount was not observed for canines.
VD-acetate (Bachem lot 2502022) was prepared in the Tris/Glycerin/m-cresol buffer at a concentration of 3 mg/mL or 15 mg/mL. The VD solution was administered continuously by subcutaneous infusion using Alzet® (Durect Corp.) osmotic minipumps (model 2002) over a period of 5 days to 3 study groups, where each study group (Groups 1-3) contained 3 male and 3 female Sprague Dawley rats.
The continuous subcutaneous delivery dose for Group 1 was calibrated to yield an administration of approximately 100 ng/(kg·min) of VD, which is in the range of a dosing regimen useful for clinical use in humans. […] However, an estimated body weight of 250 g was used for all animals (males and females) for reporting pharmacokinetic and toxicological calculations; therefore, the estimated daily dose is reported as 0.144 mg/kg·day (or 100 ng/(kg·min)) for all animals in Group 1, and the total dose delivered to each animal over the 5-day period was 0.180 mg.
The continuous subcutaneous delivery dose for Group 2 was calibrated to yield an administration of approximately 1000 ng/(kg·min) of VD, which is 10-fold higher than for Group 1. Each rat in Group 2 each had two Alzet pumps implanted to have a combined infusion rate was 1.0 μL/hr of the 15 mg/mL VD solution. The resulting actual mean weight-based doses were 1.026 and 1.629 mg/(kg·day) for males and females, respectively. For the pharmacokinetic calculations, an estimated body weight of 280 g was used for all animals (males and females); therefore, the estimated daily dose was reported as 1.29 mg/(kg·day) (or ˜896 ng/(kg·min)) for all animals in Group 2, and the total dose delivered to each animal over the 5 day period was 1.8 mg.
The continuous subcutaneous delivery dose for Group 3 was calibrated to yield an administration of approximately 2000 ng/(kg·min). Each rat each had four Alzet pumps implanted for a combined infusion rate was 2.0 μL/hr of the 15 mg/mL VD solution. The resulting actual mean weight-based doses were 1.870 and 3.303 mg/(kg·day) for males and females, respectively. For pharmacokinetic calculations, an estimated body weight of 300 g was used for all animals (males and females); therefore the estimated daily dose was reported as 2.4 mg/(kg·day) (or (or ˜1667 ng/(kg·min)) for all animals in Group 3, and the total dose delivered to each animal for the 5 day period was 3.6 mg. The dosing for Groups 1-3 is summarized in Table 5.
All animals in Groups 1-3 were observed twice daily for mortality and moribund appearance during the 5-day dosing period and during an at least 16-day pretest period. Clinical examinations were performed daily for all animals following surgery to implant the Alzet pumps. Detailed physical examinations were conducted on all animals approximately weekly during a pretest period of at least 16 days, prior to beginning dosing (Day 0), and on Day 5 prior to euthanasia. Individual body weights were recorded at least weekly during the pretest period, on Day 0 prior to dosing, and on Day 5 prior to euthanasia. Individual food consumption was recorded approximately weekly during the pretest period, on Day 0 prior to dosing, and on Day 5 prior to euthanasia. Blood samples for determination of plasma drug concentration were collected from all animals at approximately 4, 8, and 24 hours after pump implantation on Day 0 and immediately prior to euthanasia on Day 5 (120 hours after the start of dosing). Blood was collected via the retro-orbital sinus from animals anesthetized with isoflurane into chilled tubes containing K3-EDTA. Following the final blood collection, the animals were euthanized and discarded. […]

[1] = female, Sprague Dawley, rat, in vivo, sc, 0.18 mg
[2] = female, Sprague Dawley, rat, in vivo, sc, 1.8 mg
[3] = female, Sprague Dawley, rat, in vivo, sc, 3.6 mg

EVVPPQVLSEPNEEAGAALSPLPEVPPWTGEVSPAQR [VD, Vessel Dilator]
level at 8 h (Sprague Dawley, rat, in vivo, sc, 0.18 mg total dose, male rats N=3, 0.180 mg, 8 hours post-dosing, read-out: Mean concentration of vessel dilator in plasma): 11.9 ng/mL | level at 4 h (Sprague Dawley, rat, in vivo, sc, 0.18 mg, male rats N=3, 0.180 mg, 4 hours post-dosing (from start of infusion), read-out: Mean concentration of vessel dilator in plasma): 17.1 ng/mL | level at 24 h (Sprague Dawley, rat, in vivo, sc, 0.18 mg, male rats N=3, 0.180 mg, 24 hours post-dosing, read-out: Mean concentration of vessel dilator in plasma): 13.3 ng/mL | level at 120 h (Sprague Dawley, rat, in vivo, sc, 0.18 mg, male rats N=3, 0.180 mg, 120 hours post-dosing, all samples, read-out: Mean concentration of vessel dilator in plasma): 78.6 ng/mL | level at 8 h (Sprague Dawley, rat, in vivo, sc, 1.8 mg total dose, male rats N=3, 1.80 mg, 8 hours post-dosing, read-out: Mean concentration of vessel dilator in plasma): 204 ng/mL | level at 4 h (Sprague Dawley, rat, in vivo, sc, 1.8 mg, male rats N=3, 1.80 mg, 4 hours post-dosing, read-out: Mean concentration of vessel dilator in plasma): 62.3 ng/mL | level at 24 h (Sprague Dawley, rat, in vivo, sc, 1.8 mg, male rats N=3, 1.80 mg, 24 hours post-dosing, read-out: Mean concentration of vessel dilator in plasma): 167 ng/mL | level at 120 h (Sprague Dawley, rat, in vivo, sc, 1.8 mg, male rats N=3, 1.80 mg, 120 hours post-dosing, read-out: Mean concentration of vessel dilator in plasma): 214 ng/mL | level at 4 h (Sprague Dawley, rat, in vivo, sc, 3.6 mg, male rats N=3, 3.60 mg, 4 hours post-dosing, read-out: Mean concentration of vessel dilator in plasma): 370 ng/mL | level at 8 h (Sprague Dawley, rat, in vivo, sc, 3.6 mg, male rats N=3, 3.60 mg, 8 hours post-dosing, read-out: Mean concentration of vessel dilator in plasma): 255 ng/mL | level at 24 h (Sprague Dawley, rat, in vivo, sc, 3.6 mg, male rats N=3, 3.60 mg, 24 hours post-dosing, read-out: Mean concentration of vessel dilator in plasma): 168 ng/mL | level at 120 h (Sprague Dawley, rat, in vivo, sc, 3.6 mg, male rats N=3, 3.60 mg, 120 hours post-dosing, read-out: Mean concentration of vessel dilator in plasma): 261 ng/mL | maximum tolerated dose for prolonged subcutaneous administration (female rats): > 2300 ng/kg·min | level at 4 h [1]: 27.5 ng/mL | level at 8 h [1]: 31.6 ng/mL | level at 24 h [1]: 33.2 ng/mL | level at 120 h [1]: 27.1 ng/mL | level at 4 h [2]: 135 ng/mL | level at 8 h [2]: 275 ng/mL | level at 24 h [2]: 320 ng/mL | level at 120 h [2]: 265 ng/mL | level at 4 h [3]: 725 ng/mL | level at 8 h [3]: 454 ng/mL | level at 24 h [3]: 427 ng/mL | level at 120 h [3]: 567 ng/mL | Cmin (male rats, 1.80 mg total dose): 62.3 ng/mL | Cmin (male rats, 3.60 mg total dose): 167 ng/mL | maximum tolerated dose for prolonged subcutaneous administration (male rats): above 1300 ng/kg·min | Tmax (male, Sprague Dawley, rat, in vivo, sc, Tmax): 81.3 h | clinical signs of toxicity (rat, in vivo): None of the animals in Groups 1-3 showed clinical signs of toxicity | plasma concentration up to which no toxicity issues were shown (rat, in vivo, sc): approx. 740 ng/mL | AUCτ of Group 3 females compared to Group 3 males (rats, 3.60 mg, similar when normalized to weight): up to 2 fold | clinical observations, body weight gain, food consumption (rats, 5-day dosing period): no remarkable clinical observations, effects on body weight gain or effects on food consumption | survival (rats, Groups 1-3): all animals survived until euthanasia
